Measurements published in PMC5934670 (Nucleic Acids Research, 2018).

Columns and labels:
LacI = LacI (Escherichia coli, UniProt P03023); assay: Genomic SELEX-chip, loss of DNA binding; details: inducer; increasing IPTG; lac operator DNA
NanR = target: T1, NanR (Escherichia coli, UniProt P0A8W0); assay: Genomic SELEX-chip, change of DNA-binding specificity; details: effector; genomic DNA library
T1 sequence (P0A8W0 1-263): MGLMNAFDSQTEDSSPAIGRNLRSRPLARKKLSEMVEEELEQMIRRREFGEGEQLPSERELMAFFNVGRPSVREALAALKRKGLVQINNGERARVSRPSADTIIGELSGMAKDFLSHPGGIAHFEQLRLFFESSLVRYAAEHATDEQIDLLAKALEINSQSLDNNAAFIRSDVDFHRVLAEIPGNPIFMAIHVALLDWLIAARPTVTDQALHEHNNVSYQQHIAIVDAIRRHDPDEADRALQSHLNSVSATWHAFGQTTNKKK

TorR = target: T2, TorR (Escherichia coli, UniProt P38684); assay: Genomic SELEX-chip, rise of specific DNA binding; details: phosphodonor, no TorS; phosphorylation itself not measured; covalent
T2 sequence (P38684 1-230): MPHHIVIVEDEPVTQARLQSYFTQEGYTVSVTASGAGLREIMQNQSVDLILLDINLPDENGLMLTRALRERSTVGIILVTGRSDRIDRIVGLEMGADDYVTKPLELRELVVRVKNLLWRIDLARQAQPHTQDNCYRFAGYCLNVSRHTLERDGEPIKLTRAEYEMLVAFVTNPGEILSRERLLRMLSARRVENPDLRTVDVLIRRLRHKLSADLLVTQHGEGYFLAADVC

KdpE = target: T3, KdpE (Escherichia coli, UniProt P21866); assay: Genomic SELEX-chip, rise of specific DNA binding; details: phosphodonor, no KdpD; phosphorylation itself not measured; covalent
T3 sequence (P21866 1-225): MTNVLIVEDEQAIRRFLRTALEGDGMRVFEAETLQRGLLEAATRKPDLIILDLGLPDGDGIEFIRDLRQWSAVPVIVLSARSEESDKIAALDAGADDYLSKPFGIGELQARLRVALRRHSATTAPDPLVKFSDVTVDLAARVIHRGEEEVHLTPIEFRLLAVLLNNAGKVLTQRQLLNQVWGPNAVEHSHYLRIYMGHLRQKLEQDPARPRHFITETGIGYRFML

Sequence of LacI (P03023 whole entry): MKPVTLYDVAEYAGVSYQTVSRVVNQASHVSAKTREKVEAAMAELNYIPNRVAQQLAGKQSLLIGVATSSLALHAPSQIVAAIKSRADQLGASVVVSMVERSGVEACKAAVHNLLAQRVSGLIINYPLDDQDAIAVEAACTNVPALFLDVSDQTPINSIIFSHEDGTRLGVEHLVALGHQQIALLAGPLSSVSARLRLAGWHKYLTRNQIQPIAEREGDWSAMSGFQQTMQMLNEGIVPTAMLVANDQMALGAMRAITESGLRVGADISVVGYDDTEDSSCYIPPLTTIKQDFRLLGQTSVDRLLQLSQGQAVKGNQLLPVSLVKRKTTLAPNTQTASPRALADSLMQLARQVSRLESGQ

## CC(C)S[C@@H]1O[C@H](CO)[C@H](O)[C@H](O)[C@H]1O [IPTG]
LacI
  Genomic SELEX-chip, loss of DNA binding: level of LacI binding at the lacZ promoter region decreased concomitant with the increased addition of IPTG

## CC(=O)N[C@H]1[C@H]([C@H](O)[C@H](O)CO)OC(O)(C(=O)O)C[C@@H]1O (stereo partly shown) [Neu5Ac]
NanR
  Genomic SELEX-chip, change of DNA-binding specificity: The binding of NanR to these non-specific sites disappeared in the presence of Neu5Ac

## CC(=O)OP(=O)(O)O [AcP]
TorR
  Genomic SELEX-chip, rise of specific DNA binding: the level of TorR binding to this target was higher in the presence of AcP
KdpE
  Genomic SELEX-chip, rise of specific DNA binding: The binding affinity to this single target increased in the presence of AcP
